Here are results for 24 molecules from PubChem BioAssay AID330 (DTP/NCI, 2004).

Structures are written as SMILES. Where “and” joins values, the source holds several entries; their conditions need not be identical. Identical values can stand only once. Inconclusive results and toxic doses are left out. Peptide text beside a SMILES is read from it.

In this assay the test system is P388 leukemia ip, CD2F1 mice, survival T/C. As to the kind of experiment: NCI In Vivo Anticancer Drug Screen. Data for tumor model P388 Leukemia (intraperitoneal) in CD2F1 (CDF1) mice. Particulars: endpoint: median survival time, higher = longer survival. The procedure, abridged: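 Mice carrying the transplanted tumor received test compound or vehicle. Survival was recorded in each group, and the value is the treated-group measurement divided by that of the vehicle-treated control group.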

Where [1] appears, read: dose: 6.25 mg/kg/injection, schedule: Q01DX009 (ip), vehicle: saline with Tween-80.
Where [2] appears, read: dose: 12.5 mg/kg/injection, schedule: Q01DX009 (ip), vehicle: saline with Tween-80.
Where [3] appears, read: dose: 25.0 mg/kg/injection, schedule: Q01DX009 (ip), vehicle: saline with Tween-80.
The mark [4] stands for this setting: dose: 50.0 mg/kg/injection, schedule: Q01DX005 (ip), vehicle: Klucel (hydroxypropylcellulose) (HPC).
The mark [5] stands for this setting: dose: 100.0 mg/kg/injection, schedule: Q01DX005 (ip), vehicle: Klucel (hydroxypropylcellulose) (HPC).
The mark [6] stands for this setting: dose: 100.0 mg/kg/injection, schedule: Q01DX009 (ip), vehicle: saline with Tween-80.
[7] abbreviates: dose: 100.0 mg/kg/injection, schedule: Q04DX003 (ip), vehicle: Klucel (hydroxypropylcellulose) (HPC).
The mark [8] stands for this setting: dose: 200.0 mg/kg/injection, schedule: Q01DX009 (ip), vehicle: saline with Tween-80.
The mark [9] stands for this setting: dose: 200.0 mg/kg/injection, schedule: Q04DX003 (ip), vehicle: Klucel (hydroxypropylcellulose) (HPC).
[10] abbreviates: dose: 400.0 mg/kg/injection, schedule: Q01DX009 (ip), vehicle: saline with Tween-80.
[11] abbreviates: dose: 50.0 mg/kg/injection, schedule: Q04DX003 (ip), vehicle: saline.
[12] abbreviates: dose: 100.0 mg/kg/injection, schedule: Q04DX003 (ip), vehicle: saline.
Where [13] appears, read: dose: 50.0 mg/kg/injection, schedule: Q01DX009 (ip), vehicle: Klucel (hydroxypropylcellulose) (HPC).
[14] abbreviates: dose: 100.0 mg/kg/injection, schedule: Q01DX009 (ip), vehicle: Klucel (hydroxypropylcellulose) (HPC).
Setting [15] is: dose: 200.0 mg/kg/injection, schedule: Q01DX009 (ip), vehicle: Klucel (hydroxypropylcellulose) (HPC).
[16] abbreviates: dose: 12.5 mg/kg/injection, schedule: Q01DX009 (ip), vehicle: Klucel (hydroxypropylcellulose) (HPC).
Where [17] appears, read: dose: 25.0 mg/kg/injection, schedule: Q01DX009 (ip), vehicle: Klucel (hydroxypropylcellulose) (HPC).
Where [18] appears, read: dose: 25.0 mg/kg/injection, schedule: Q04DX003 (ip), vehicle: saline.
Where [19] appears, read: dose: 200.0 mg/kg/injection, schedule: Q01DX005 (ip), vehicle: Klucel (hydroxypropylcellulose) (HPC).

For `Nc1nc(N)c2cc(CCc3ccccc3)ccc2n1`, the T/C under setting [1] is 95 % of control; the T/C under setting [2] was 109 % of control; the T/C under setting [3] is 90 % of control; the T/C (dose: 50.0 mg/kg/injection, schedule: Q04DX003 (ip), vehicle: saline with Tween-80) was 104 % of control; the T/C (dose: 100.0 mg/kg/injection, schedule: Q04DX003 (ip), vehicle: saline with Tween-80) was 109 % of control.

Turning to `CN(C)CCCNC(=S)C(=S)NCCCN(C)C`, the T/C was 97 % of control under setting [4] and 105 % of control under setting [5].

As for `COc1ccc(OCC(O)CN2CCN(c3ccc(Cl)cc3)CC2)cc1` (centres undefined), the T/C runs as follows: under setting [6], 99 % of control; under setting [7], 100 % of control; under setting [8], 101 % of control; under setting [9], 100 % of control; under setting [10], 92 % of control.

With `CC(C)=CCCC(C)C1=C(O)C(=O)C(C)=CC1=O` (centres undefined), the T/C (dose: 12.5 mg/kg/injection, schedule: Q01DX005 (ip), vehicle: Klucel (hydroxypropylcellulose) (HPC)) was 108 % of control.

For the molecule `O=C(O)CC12CCC(CC1)OC2=O`, the T/C by setting is: (dose: 50.0 mg/kg/injection, schedule: Q01DX009 (ip), vehicle: saline) 100 % of control; (dose: 100.0 mg/kg/injection, schedule: Q01DX009 (ip), vehicle: saline) 106 % of control; (dose: 200.0 mg/kg/injection, schedule: Q01DX009 (ip), vehicle: saline) 97 % of control.

In the case of `Cc1cc2c(=O)[nH]c(N)nc2nc1C`, the T/C (dose: 50.0 mg/kg/injection, schedule: Q01DX005 (ip), vehicle: saline with Tween-80) is 100 % of control; the T/C (dose: 100.0 mg/kg/injection, schedule: Q01DX005 (ip), vehicle: saline with Tween-80) was 96 % of control; the T/C (dose: 200.0 mg/kg/injection, schedule: Q01DX005 (ip), vehicle: saline with Tween-80) was 102 % of control.

On to `Cc1ccc(C(=O)NN2C(N)=NC(N)=NC2(C)C)cc1`, for which the T/C is 100 % of control under setting [11] and 105 % of control under setting [12].

Take `NOCc1cccc(Cl)c1`: the T/C is 87 % of control under setting [3] and 87 % of control under setting [6].

In the case of `Cc1cc(CSC(=N)N)c(C)cc1CSC(=N)N`, the T/C is 100 % of control (dose: 5.0 mg/kg/injection, schedule: Q01DX009 (ip), vehicle: saline with Tween-80); 109 % of control (dose: 10.0 mg/kg/injection, schedule: Q01DX009 (ip), vehicle: saline with Tween-80); 108 % of control (dose: 10.0 mg/kg/injection, schedule: Q04DX003 (ip), vehicle: saline with Tween-80); 109 % of control (dose: 20.0 mg/kg/injection, schedule: Q01DX009 (ip), vehicle: saline with Tween-80); 104 % of control (dose: 20.0 mg/kg/injection, schedule: Q04DX003 (ip), vehicle: saline with Tween-80); 116 % of control (dose: 40.0 mg/kg/injection, schedule: Q04DX003 (ip), vehicle: saline with Tween-80).

For `CC(C)N(C(C)C)C1C2=C(CCSC2)OC(=O)C1(Cl)Cl` (centres undefined), the T/C (dose: 50.0 mg/kg/injection, schedule: Q01DX009 (ip), vehicle: saline with Tween-80) is 103 % of control; the T/C under setting [6] was 100 % of control; the T/C under setting [8] was 96 % of control.

`FC(F)(F)C1=NNC(c2ccc3ccccc3c2)=NN1`: the T/C by setting is: under setting [13], 95 % of control; under setting [14], 90 % of control; under setting [15], 92 % of control.

`C/C(N)=C\C(=S)Nc1ccccc1`: the T/C reads like this: under setting [16], 100 % of control; under setting [17], 106 % of control; under setting [13], 104 % of control.

As for `CCn1c2ccccc2c2cc(NC(=O)N(CCCl)N=O)ccc21`, the T/C reads like this: under setting [1], 119 % of control; under setting [2], 122 % of control; under setting [6], 189 % of control.

For `NC(Cc1cnc[nH]1)C(=O)NC(Cc1ccc(O)cc1)C(=O)O` (stereo not drawn) (H-His-Tyr-OH; configuration not given here), the T/C by setting is: (dose: 60.0 mg/kg/injection, schedule: Q01DX005 (ip), vehicle: saline) 100 % of control; (dose: 120.0 mg/kg/injection, schedule: Q01DX005 (ip), vehicle: saline) 101 % of control; (dose: 240.0 mg/kg/injection, schedule: Q01DX005 (ip), vehicle: saline) 100 % of control.

In the case of `O=C1NC(c2ccccc2)(c2ccccc2)C(=O)N1CCBr`, the T/C (dose: 12.5 mg/kg/injection, schedule: Q04DX003 (ip), vehicle: saline) was 106 % of control; the T/C (dose: 25.0 mg/kg/injection, schedule: Q04DX003 (ip), vehicle: Klucel (hydroxypropylcellulose) (HPC)) was 96 % of control; the T/C under setting [18] is 100 % of control; the T/C (dose: 50.0 mg/kg/injection, schedule: Q04DX003 (ip), vehicle: Klucel (hydroxypropylcellulose) (HPC)) was 105 % of control; the T/C under setting [11] is 105 % of control; the T/C under setting [7] is 100 % of control and 107 % of control. For the same molecule, the T/C by setting is: under setting [12], 104 % of control; under setting [9], 100 % of control and 96 % of control; (dose: 400.0 mg/kg/injection, schedule: Q04DX003 (ip), vehicle: Klucel (hydroxypropylcellulose) (HPC)) 98 % of control and 99 % of control.

`CSc1cccc(NC(=O)OCCOc2ccc(Cl)cc2)c1`: the T/C by setting is: under setting [13], 102 % of control; under setting [14], 100 % of control; under setting [15], 92 % of control.

As for `COc1ccc2nc(Cl)c(CO)c(CO)c2c1`, the T/C under setting [4] is 102 % of control, the T/C under setting [5] is 95 % of control and the T/C under setting [19] is 105 % of control.

Turning to `ClC(Cl)(Cl)C(N1CCN(c2ccccc2)CC1)N1CCN(c2ccccc2)CC1`, the T/C by setting is: under setting [6], 101 % of control; under setting [8], 101 % of control; under setting [10], 106 % of control; (dose: 600.0 mg/kg/injection, schedule: Q01DX009 (ip), vehicle: saline with Tween-80) 100 % of control.

On to `O=C(Nc1cccc2ccccc12)c1cc2c(cc1Br)OCO2`, for which the T/C (dose: 12.5 mg/kg/injection, schedule: Q01DX009 (ip), vehicle: distilled water + Tween-80) is 104 % of control; the T/C (dose: 25.0 mg/kg/injection, schedule: Q01DX009 (ip), vehicle: distilled water + Tween-80) is 95 % of control; the T/C (dose: 50.0 mg/kg/injection, schedule: Q01DX009 (ip), vehicle: distilled water + Tween-80) is 92 % of control; the T/C (dose: 200.0 mg/kg/injection, schedule: Q01DX009 (ip), vehicle: distilled water + Tween-80) was 90 % of control.

As for `COc1ccc2nonc2c1`, the T/C (dose: 100.0 mg/kg/injection, schedule: Q01DX001 (ip), vehicle: saline) was 103 % of control; the T/C (dose: 200.0 mg/kg/injection, schedule: Q01DX001 (ip), vehicle: saline) is 103 % of control; the T/C (dose: 400.0 mg/kg/injection, schedule: Q01DX001 (ip), vehicle: saline) is 105 % of control.

Take `COc1cc(-c2nc(SC)n[nH]2)cc(OC)c1OC`: the T/C reads like this: under setting [4], 95 % of control; under setting [5], 104 % of control; under setting [19], 88 % of control.

As to `CC1(C)N=C(N)N=C(N)N1c1ccccc1`, the T/C under setting [18] was 104 % of control and the T/C under setting [11] is 112 % of control.

Turning to `NNc1n[nH]c(=S)n1N`, the T/C was 94 % of control (dose: 6.25 mg/kg/injection, schedule: Q01DX009 (ip), vehicle: Klucel (hydroxypropylcellulose) (HPC)); 109 % of control under setting [1]; 94 % of control under setting [16]; 100 % of control under setting [2]; 106 % of control under setting [17]; 104 % of control under setting [3].

On to `CCC[CH2][Sn]1([CH2]CCC)[O]C2C(O)OC(CO)C(O)C2[O]1` (centres undefined), for which the T/C was 107 % of control (dose: 1.56 mg/kg/injection, schedule: Q04DX003 (ip), vehicle: saline); 107 % of control and 109 % of control (dose: 3.12 mg/kg/injection, schedule: Q04DX003 (ip), vehicle: saline); 111 % of control (dose: 6.25 mg/kg/injection, schedule: Q04DX003 (ip), vehicle: saline).
